Data: patent US8637681B2, “Pyrrolyl substituted dihydroindol-2-one derivatives, preparation methods and uses thereof” (Qilu Pharmaceutical Co., Ltd., priority 2010, dated 2014)

Key:
[1] = Cytotoxicity test (SRB), A549; format: cell-based; details: human, A549 non-small cell lung cancer cells
Description: (§1) Cytotoxicity of the compounds of the present invention was tested with human non-small cell lung cancer cells A549, human cervical cancer Hela cells, human skin cancer cells A431. The test was performed by referring to the method described by Rusnak et al (Rusnak D. W., et al., Cell Prolif., 2007, 40, 580-94).
(§2) In Dulbecco's Modified Eagle Medium (DMEM) comprising 10% fetal bovine serum, 2 mM glutamine and non-essential amino acids, cells were cultured at 37° C. in 5% CO2 cell incubator. Trypsin/ethylenediamine tetraacetic acid (EDTA) were used to harvest cells in cell culture bottle. The cells were added to a 96-well cell culture plate, 4000/well (0.1 ml medium), adhering wall overnight, 0.1 ml of the diluted solution of the compounds to be tested was added, the final concentration of DMSO was 0.25%. The cell culture plate was incubated at 37° C., 5% CO2 conditions for 72 h. The change of cellular morphology was observed under microscope, and then 50 μl of 50% (mass/volume) trichloroacetic acid (TCA) was added to each well to fix cells. The final concentration of TCA was 10%. It stood for 5 min, than was placed in 4° C. refrigerator for 1 h, the wells of the culture plate were washed with deionized water for 5 times to remove TCA, drained, dried in air until no wet trace was observed. 100 μl of 0.4% (mass/volume) SRB was added to each well, stood at room temperature for 10 min. The liquid in each well was discarded, and then the wells were washed with 1% acetic acid for 5 times, dried in air, extracted with 150 μl of 10 mM Tris base (trihydroxymethylaminomethane, pH 10.5). The absorption at a wavelength of 540 nm was measured. The IC50 (μM) of the compound was calculated using Logit method.

[2] = tested on: arterial ring angiogenesis in rats; assay: Inhibitory actions on arterial ring angiogenesis in rats; format: cell-based; details: Rattus norvegicus, area covered by micrangiums vs control well, read-out: Inhibitory rate (%); for inhibition at 0.2 µg/mL: 0.2 μg/ml; for inhibition at 1 µg/mL: 1 μg/ml; for inhibition at 5 µg/mL: 5 μg/ml
Description: This experiment was conducted by referring to the method described by R. F. Nicosia et al (Nicosia, R. F., et al. Am J Pathol., 1997, 151, 1379-1386). Rats were executed by cervical dislocation. The thoracic aorta was carefully separated, and placed in a container with physiological saline. The excess tissues were carefully cut off. The blood vessels were cut with a pair of ophthalmic scissors to form 1 mm thick vascular ring slices. To a pre-cooled 96-well cell culture plate, one separated vascular ring was placed in the center of each well. 70 μl of pre-molten Matrigel was carefully added to cover the vascular ring, which was incubated at 37° C. for 1 h so as to solidify it. […] The sample was placed in incubator for conventional culture, and each compound was tested at least in two repeated wells, and each test was repeated twice. […] The fresh culture medium was replaced every 3 days, and the drug was changed at the same time. The survival status of vascular rings was observed under microscope, and pictures were taken at the same time. Image Pro Plus software was used to calculate the area covered by micrangiums. The average inhibition rate was calculated by using the formula: inhibition rate (%)=(area of control well−area of drug well)/area of control well×100%.

[3] = tested on: human colon cancer HT 29 transplanted tumor; assay: Nude mice transplanted tumor test; format: in vivo, female Balb/cA nude mice; design: key to d21 Vave ± SD (average tumor volume): tumor volume TV = ½×a×b² (a, b = major, minor diameter), in mm³; details: for Dead animal number / inhibition in vivo at 80 mg/kg / d21 Wave ± SD (average bodyweight of nude mice) / d21 Vave ± SD (average tumor volume) / d21 RTV ± SD (relative tumor volume): 80 mg/kg intragastrically each day for 20 days; for Dead animal number: dead/total animals; for Activity of inhibiting HT-29 transplanted tumor in vivo (in words): 80 mg/kg, compared with positive control Sunitinib; for inhibition in vivo at 80 mg/kg: Mus musculus, HT-29, po, 504 h, (1−T/C)×100%, read-out: Tumor inhibition rate d21 (%); for inhibition in vivo at 80 mg/kg / d21 Wave ± SD (average bodyweight of nude mice) / d21 Vave ± SD (average tumor volume) / d21 RTV ± SD (relative tumor volume): d21; for d0 Wave ± SD (average bodyweight of nude mice): d0, at grouping before administration (baseline); for d21 Vave ± SD (average tumor volume): HT 29 in nude mice; for d21 RTV ± SD (relative tumor volume): RTV=Vt/V0
Description: The nude mice transplanted tumor test used female Balb/cA nude mice, and tumor strains were human colon cancer HT 29 strains.
Under sterile condition, eugonic tumor tissues stage were cut into pieces of about 1.5 mm^3, and inoculated at right axillary fossa of the nude mice. The transplanted tumor diameter was measured by vernier caliper, and the animals were randomly grouped after the tumors grew to about 120 mm^3. The positive control group and the compounds group in a dosage of 80 mg/kg were administered intragastrically each day for consecutive 20 days. The negative control group was given equivalent amount of injection water containing 0.1% Tween 80. Tumor diameters and the bodyweight of mice were measured 2-3 times every week. The evaluation indexes observed in the test include relative tumor proliferation rate, bodyweight and general states. The formulation for calculating tumor volume (TV) is: TV=½×a×b^2, wherein a, b represent major diameter and minor diameter of tumor; Relative tumor volume (RTV) was calculated according the results of measurement by the following formula: RTV=Vt/V0, wherein V0 is tumor volume measured when dividing groups for administration, and Vt is tumor volume measured after each administration.

[4] = Cytotoxicity test (SRB), A431; format: cell-based; details: human, A431 skin cancer cells
Description: as §1, §2

[5] = Cytotoxicity test (SRB), Hela; format: cell-based; details: human, Hela cervical cancer cells
Description: Cytotoxicity of the compounds of the present invention was tested with human non-small cell lung cancer cells A549, human cervical cancer Hela cells, human skin cancer cells A431. The test was performed by referring to the method described by Rusnak et al (Rusnak D. W., et al., Cell Prolif., 2007, 40, 580-94). […] Trypsin/ethylenediamine tetraacetic acid (EDTA) were used to harvest cells in cell culture bottle. The cells were added to a 96-well cell culture plate, 4000/well (0.1 ml medium), adhering wall overnight, 0.1 ml of the diluted solution of the compounds to be tested was added, the final concentration of DMSO was 0.25%. The cell culture plate was incubated at 37° C., 5% CO2 conditions for 72 h. […] The absorption at a wavelength of 540 nm was measured. The IC50 (μM) of the compound was calculated using Logit method.

Compound | IC50 at 72 h [1] | inhibition at 0.2 µg/mL [2] | inhibition at 1 µg/mL [2] | inhibition at 5 µg/mL [2] | Dead animal number [3] | Activity of inhibiting HT-29 transplanted tumor in vivo (in words) [3] | inhibition in vivo at 80 mg/kg [3] | d0 Wave ± SD (average bodyweight of nude mice) [3] | d21 Wave ± SD (average bodyweight of nude mice) [3] | d21 Vave ± SD (average tumor volume) ([3]; in mm³ (unit assumed)) | d21 RTV ± SD (relative tumor volume) [3] | IC50 at 72 h [4] | IC50 at 72 h [5] | d21 Vave ± SD (average tumor volume) [3]
Cc1[nH]c(/C=C2\C(=O)Nc3ccc(F)cc32)c(C)c1NC(=O)CCN1CCN(C)CC1 [Compound 11, N-{5-[5-fluoro-2-oxo-1,2-dihydro-indol-(3Z)-ylidenemethyl]-2,4-dimethyl-1H-pyrrol-3-yl}-3-(4-methylpiperazin-1-yl)propionamide] | > 30 µM | 99% | 100% | 100% | 0/6 | inhibitory activity comparable to the positive control Sunitinib | 88.5% | 18.5 ± 0.55 | 20.5 ± 0.49 | 96.7 ± 35.4 | 0.83 ± 0.52 | > 30 µM | > 30 µM | 
Cc1[nH]c(/C=C2\C(=O)Nc3ccc(F)cc32)c(C)c1NC(=O)CN1CCCC1 [Compound 17, N-{5-[5-fluoro-2-oxo-1,2-dihydro-indol-(3Z)-ylidenemethyl]-2,4-dimethyl-1H-pyrrol-3-yl}-2-(tetrahydropyrrol-1-yl)acetamide] | > 30 µM | 89% | 100% | 100% | 0/6 |  | 63.5% | 18.9 ± 0.58 | 19.2 ± 0.82 |  | 2.63 ± 0.53 | > 30 µM | > 30 µM | 324.5 ± 39.4
CCN(CC)CC(=O)Nc1c(C)[nH]c(/C=C2\C(=O)Nc3ccc(Cl)cc32)c1C [Compound 21, N-{5-[5-chloro-2-oxo-1,2-dihydro-indol-(3Z)-ylidenemethyl]-2,4-dimethyl-1H-pyrrol-3-yl}-2-(N,N-diethylamino)acetamide] | > 30 µM | 95% | 100% | 100% | 0/6 | inhibitory activity comparable to the positive control Sunitinib | 89% | 18.9 ± 0.47 | 19.3 ± 0.76 | 94.3 ± 37.2 | 0.79 ± 0.63 | > 30 µM | > 30 µM | 
CCN(CC)CC(=O)Nc1c(C)[nH]c(/C=C2\C(=O)Nc3ccc([N+](=O)[O-])cc32)c1C [Compound 26, N-{5-[5-nitro-2-oxo-1,2-dihydro-indol-(3Z)-ylidenemethyl]-2,4-dimethyl-1H-pyrrol-3-yl}-2-(N,N-diethylamino)acetamide] | > 30 µM | 93% | 100% | 100% | 0/6 |  | 64.8% | 19.3 ± 0.55 | 20.5 ± 0.35 |  | 2.53 ± 0.43 | > 30 µM | 4.62 µM | 305.6 ± 46.7
CCN(CC)CCC(=O)Nc1c(C)[nH]c(/C=C2\C(=O)Nc3ccc(Cl)cc32)c1C [Compound 2, N-{5-[5-chloro-2-oxo-1,2-dihydro-indol-(3Z)-ylidenemethyl]-2,4-dimethyl-1H-pyrrol-3-yl}-3-(N,N-diethylamino)propionamide] | > 30 µM | 94% | 100% | 100% | 0/6 |  | 63.8% | 18.8 ± 0.35 | 19.9 ± 0.68 |  | 2.60 ± 0.52 | > 30 µM | > 30 µM | 300.3 ± 36.8
CCN(CC)CCC(=O)Nc1c(C)[nH]c(/C=C2\C(=O)Nc3ccc(NS(C)(=O)=O)cc32)c1C [Compound 8, N-{5-[5-methylsulfonylamino-2-oxo-1,2-dihydro-indol-(3Z)-ylidenemethyl]-2,4-dimethyl-1H-pyrrol-3-yl}-3-(N,N-diethylamino)propionamide] | > 30 µM | 94% | 100% | 100% | 0/6 |  | 78.9% | 19.2 ± 0.32 | 17.8 ± 0.65 | 186.0 ± 53.1 | 1.52 ± 0.56 | > 30 µM | > 30 µM | 
CCN(CC)CC(=O)Nc1c(C)[nH]c(/C=C2\C(=O)Nc3cc(C(F)(F)F)ccc32)c1C [Compound 24, N-{5-[6-trifluoromethyl-2-oxo-1,2-dihydro-indol-(3Z)-ylidenemethyl]-2,4-dimethyl-1H-pyrrol-3-yl}-2-(N,N-diethylamino)acetamide] | > 30 µM | 98% | 100% | 100% | 0/6 |  | 64.9% | 18.6 ± 0.36 | 17.9 ± 0.58 | 298.5 ± 55.8 | 2.52 ± 0.23 | 8.89 µM | 3.56 µM | 
